From the CheMixHub viscosity set

Assay: xn = mol fraction of the nth substance listed

COC(=O)OC + CC(C)O
101.3 kPa
Conditions | viscosity [mPa·s]
293.15 K, x1 = 0.0526 | 1.968
293.15 K, x1 = 0.0934 | 1.706
293.15 K, x1 = 0.2033 | 1.212
293.15 K, x1 = 0.3129 | 0.943
293.15 K, x1 = 0.4065 | 0.817
293.15 K, x1 = 0.5 | 0.74
293.15 K, x1 = 0.6079 | 0.686
293.15 K, x1 = 0.7026 | 0.647
293.15 K, x1 = 0.8048 | 0.609
293.15 K, x1 = 0.9008 | 0.593
293.15 K, x1 = 0.9507 | 0.601
298.15 K, x1 = 0.0498 | 1.733
298.15 K, x1 = 0.0979 | 1.454
298.15 K, x1 = 0.2031 | 1.046
298.15 K, x1 = 0.2999 | 0.844
298.15 K, x1 = 0.3972 | 0.74
298.15 K, x1 = 0.4892 | 0.69
298.15 K, x1 = 0.5938 | 0.654
298.15 K, x1 = 0.6971 | 0.625
298.15 K, x1 = 0.7983 | 0.589
298.15 K, x1 = 0.9012 | 0.567
298.15 K, x1 = 0.9451 | 0.567
303.15 K, x1 = 0.0437 | 1.537
303.15 K, x1 = 0.1028 | 1.287
303.15 K, x1 = 0.2013 | 0.992
303.15 K, x1 = 0.3062 | 0.802
303.15 K, x1 = 0.384 | 0.713
303.15 K, x1 = 0.4951 | 0.642
303.15 K, x1 = 0.5998 | 0.606
303.15 K, x1 = 0.7053 | 0.581
303.15 K, x1 = 0.8047 | 0.562
303.15 K, x1 = 0.9062 | 0.545
303.15 K, x1 = 0.937 | 0.542
313.15 K, x1 = 0.0507 | 1.147
313.15 K, x1 = 0.0997 | 1.005
313.15 K, x1 = 0.1984 | 0.799
313.15 K, x1 = 0.2975 | 0.668
313.15 K, x1 = 0.4001 | 0.592
313.15 K, x1 = 0.4884 | 0.553
313.15 K, x1 = 0.5959 | 0.522
313.15 K, x1 = 0.7017 | 0.506
313.15 K, x1 = 0.8014 | 0.494
313.15 K, x1 = 0.9053 | 0.49
313.15 K, x1 = 0.9492 | 0.491

O=S(=O)([O-])[O-].[NH3+]O.[NH3+]O + O
viscosity [mPa·s], 101 kPa
Conditions | x1 = 0.001 | x1 = 0.002 | x1 = 0.006 | x1 = 0.012 | x1 = 0.019 | x1 = 0.027 | x1 = 0.035 | x1 = 0.045
293.15 K | 1.022 | 1.046 | 1.134 | 1.264 | 1.435 | 1.678 | 1.925 | 2.198
298.15 K | 0.905 | 0.931 | 0.995 | 1.121 | 1.277 | 1.481 | 1.706 | 1.983
303.15 K | 0.811 | 0.831 | 0.89 | 1.006 | 1.148 | 1.317 | 1.523 | 1.849
313.15 K | 0.666 | 0.683 | 0.734 | 0.825 | 0.937 | 1.075 | 1.244 | 1.508
323.15 K | 0.559 | 0.573 | 0.616 | 0.693 | 0.791 | 0.901 | 1.04 | 1.247

COCCOCCOC + O
Conditions | viscosity [mPa·s]
298.15 K, 101 kPa, x1 = 0.021 | 1.36
298.15 K, 101 kPa, x1 = 0.04611 | 2.03
298.15 K, 101 kPa, x1 = 0.08173 | 2.84
298.15 K, 101 kPa, x1 = 0.135 | 3.11
298.15 K, 101.32 kPa, x1 = 0.0104 | 1.16
298.15 K, 101.32 kPa, x1 = 0.0199 | 1.362
298.15 K, 101.32 kPa, x1 = 0.0677 | 2.567
298.15 K, 101.32 kPa, x1 = 0.1 | 2.959
298.15 K, 101.32 kPa, x1 = 0.1492 | 3.175
298.15 K, 101.32 kPa, x1 = 0.1978 | 2.936
298.15 K, 101.32 kPa, x1 = 0.2959 | 2.342
298.15 K, 101.32 kPa, x1 = 0.4011 | 1.881
298.15 K, 101.32 kPa, x1 = 0.4988 | 1.552
298.15 K, 101.32 kPa, x1 = 0.577 | 1.398
298.15 K, 101.32 kPa, x1 = 0.8569 | 1.084
298.15 K, 101.33 kPa, x1 = 0.0091 | 1.139
298.15 K, 101.33 kPa, x1 = 0.0188 | 1.403
298.15 K, 101.33 kPa, x1 = 0.0295 | 1.691
298.15 K, 101.33 kPa, x1 = 0.051 | 2.246
298.15 K, 101.33 kPa, x1 = 0.0854 | 2.993
298.15 K, 101.33 kPa, x1 = 0.1194 | 3.328
298.15 K, 101.33 kPa, x1 = 0.1604 | 3.232
298.15 K, 101.33 kPa, x1 = 0.2099 | 2.993
298.15 K, 101.33 kPa, x1 = 0.2597 | 2.661
298.15 K, 101.33 kPa, x1 = 0.3028 | 2.389
298.15 K, 101.33 kPa, x1 = 0.3461 | 2.153
298.15 K, 101.33 kPa, x1 = 0.3843 | 1.982
298.15 K, 101.33 kPa, x1 = 0.4327 | 1.791
298.15 K, 101.33 kPa, x1 = 0.4651 | 1.691
298.15 K, 101.33 kPa, x1 = 0.5196 | 1.536
298.15 K, 101.33 kPa, x1 = 0.608 | 1.356
298.15 K, 101.33 kPa, x1 = 0.659 | 1.272
298.15 K, 101.33 kPa, x1 = 0.7695 | 1.145
298.15 K, 101.33 kPa, x1 = 0.8171 | 1.103
298.15 K, 101.33 kPa, x1 = 0.8712 | 1.066
298.15 K, 101.33 kPa, x1 = 0.9453 | 1.024
303.15 K, 101 kPa, x1 = 0.021 | 1.19
303.15 K, 101 kPa, x1 = 0.04611 | 1.71
303.15 K, 101 kPa, x1 = 0.08173 | 2.35
303.15 K, 101 kPa, x1 = 0.135 | 2.62
313.15 K, 101 kPa, x1 = 0.021 | 0.94
313.15 K, 101 kPa, x1 = 0.04611 | 1.27
313.15 K, 101 kPa, x1 = 0.08173 | 1.75
313.15 K, 101 kPa, x1 = 0.135 | 1.93
323.15 K, 101 kPa, x1 = 0.021 | 0.78
323.15 K, 101 kPa, x1 = 0.04611 | 1.01
323.15 K, 101 kPa, x1 = 0.08173 | 1.34
323.15 K, 101 kPa, x1 = 0.135 | 1.46

O=S(=O)([O-])[O-].[Li+].[Li+] + [2H]O[2H]
viscosity [mPa·s], 101 kPa
Conditions | x1 = 0.005 | x1 = 0.016 | x1 = 0.032 | x1 = 0.052
298.15 K | 1.243 | 1.74 | 2.887 | 5.343
308.15 K | 0.975 | 1.355 | 2.216 | 3.964
318.15 K | 0.802 | 1.102 | 1.77 | 3.084

Oc1ccccc1 + O=[N+]([O-])c1ccccc1
293.15 K, 101 kPa
Conditions | viscosity [mPa·s]
x1 = 0.0537 | 1.975
x1 = 0.113 | 2.041
x1 = 0.2245 | 2.208
x1 = 0.3306 | 2.46
x1 = 0.4448 | 2.845
x1 = 0.5641 | 3.53
x1 = 0.6497 | 4.19
x1 = 0.7623 | 5.4
x1 = 0.8785 | 7.59

Oc1ccccc1 + CN(C)c1ccccc1
viscosity [mPa·s], 101 kPa
Conditions | 293.15 K | 302.95 K | 313.35 K
x1 = 0.0998 | – | 1.351 | 1.159
x1 = 0.114 | 1.684 | – | –
x1 = 0.2041 | – | 1.629 | 1.354
x1 = 0.2122 | 2.045 | – | –
x1 = 0.2884 | 2.415 | – | –
x1 = 0.2958 | – | 1.936 | 1.57
x1 = 0.385 | – | 2.315 | 1.84
x1 = 0.3889 | 3.085 | – | –
x1 = 0.4659 | 3.77 | – | –
x1 = 0.477 | – | 2.83 | 2.185
x1 = 0.5458 | 4.7 | – | –
x1 = 0.5549 | – | 3.33 | 2.51
x1 = 0.6187 | 5.64 | – | –
x1 = 0.6224 | – | 3.93 | 2.855
x1 = 0.6851 | 6.75 | – | –
x1 = 0.6955 | – | 4.705 | 3.34
x1 = 0.75 | 8.01 | – | –
x1 = 0.7591 | – | 5.325 | 3.715
x1 = 0.8215 | 9.4 | – | –
x1 = 0.8274 | – | 6.025 | 4.15
x1 = 0.8827 | 10.3 | – | –
x1 = 0.8884 | – | 6.48 | 4.4
x1 = 0.9428 | 10.87 | – | –
x1 = 0.9463 | – | 6.86 | 4.59

COC(=O)OC + CCCO
101.3 kPa
Conditions | viscosity [mPa·s]
293.15 K, x1 = 0.0508 | 1.875
293.15 K, x1 = 0.0875 | 1.683
293.15 K, x1 = 0.1647 | 1.362
293.15 K, x1 = 0.2944 | 1.024
293.15 K, x1 = 0.3858 | 0.885
293.15 K, x1 = 0.544 | 0.751
293.15 K, x1 = 0.6026 | 0.716
293.15 K, x1 = 0.7041 | 0.666
293.15 K, x1 = 0.89 | 0.61
293.15 K, x1 = 0.9015 | 0.606
293.15 K, x1 = 0.951 | 0.608
298.15 K, x1 = 0.0517 | 1.675
298.15 K, x1 = 0.0898 | 1.493
298.15 K, x1 = 0.1903 | 1.147
298.15 K, x1 = 0.2896 | 0.936
298.15 K, x1 = 0.3944 | 0.803
298.15 K, x1 = 0.498 | 0.725
298.15 K, x1 = 0.5993 | 0.673
298.15 K, x1 = 0.7016 | 0.631
298.15 K, x1 = 0.8007 | 0.598
298.15 K, x1 = 0.8994 | 0.579
298.15 K, x1 = 0.949 | 0.576
303.15 K, x1 = 0.0728 | 1.404
303.15 K, x1 = 0.0829 | 1.367
303.15 K, x1 = 0.184 | 1.072
303.15 K, x1 = 0.2605 | 0.919
303.15 K, x1 = 0.3758 | 0.769
303.15 K, x1 = 0.4849 | 0.685
303.15 K, x1 = 0.6278 | 0.613
303.15 K, x1 = 0.7071 | 0.594
303.15 K, x1 = 0.8061 | 0.569
303.15 K, x1 = 0.9018 | 0.554
303.15 K, x1 = 0.9507 | 0.542
313.15 K, x1 = 0.0498 | 1.198
313.15 K, x1 = 0.0973 | 1.066
313.15 K, x1 = 0.1985 | 0.86
313.15 K, x1 = 0.3015 | 0.721
313.15 K, x1 = 0.4025 | 0.639
313.15 K, x1 = 0.5021 | 0.584
313.15 K, x1 = 0.6029 | 0.546
313.15 K, x1 = 0.7038 | 0.521
313.15 K, x1 = 0.8033 | 0.5
313.15 K, x1 = 0.9073 | 0.489
313.15 K, x1 = 0.951 | 0.489
